What all share (type): in vivo, human
Assay [1] can be described thus: Equivalent concentration of bitter taste (Example 30), thiamine hydrochloride. The following applies: derivative 4 2.2 ppm; thiamine hydrochloride 5000 ppm; no addition 0.131. Here is the method:
(§1) With respect to the solution produced by adding derivative 1 (the product of the present invention), or adding nothing (no addition; the reference product) in the concentration shown in the following table 4 to the amino acid solution (2% solution of arginine by weight), the sensory evaluation was performed (using 10 panelists), and the equivalent concentration of bitter taste was determined. The results were shown in the table 4, wherein the equivalent concentration of bitter taste was shown in the concentration of aqueous solution of anhydrous caffeine which is a substance of bitter taste.
(§2) With respect to the solution produced by adding derivative 4 (2.2 ppm) to each of the substances of Quinine sulfate (39 ppm), anhydrous caffeine (2000 ppm), ferrous citrate (50 ppm), calcium lactate (1500 ppm), and thiamine hydrochloride (5000 ppm) (the product of the present invention), or adding nothing thereto (no addition; the reference product) the reference product (no addition), the sensory evaluation was performed (using 10 panelists), and the equivalent concentration of bitter taste was determined in the same way as that described in Example 28, and shown in table 6.

Assay [2] is described as follows: Equations for calculating sweetness intensity and values calculated from them. The following applies: for X when Y=6.3%: from the equation of the respective derivative; for concentration of the derivative of PSE 0.5%: from the cola drink equation of Example 17. An excerpt:
For example, when preparing a solution having a intensity of sweetness equivalent to that of 10% sucrose, wherein 80% of the 10% of intensity of sweetness is from the sweetener component A and the residual 20% is from the sweetener component B, the sweetness ratio is A:B=8:2. When the sweetening magnification relative to sucrose varies depending on the composition and the concentration of the sweetener component is varied even if it is a same sweetener component (in this case, an exponential curve can be prepared and used for calculation), the objective weight of the sweetener component can be calculated. For example, if the equation for converting sweetness intensity (the exponential curve) component A is Y=aX^b, and the equation for converting sweetness intensity (the exponential curve)of component B is Y=cX^d, the weight ratio of the components A and B in the ratio A:B=8:2, can be determined using the following calculation, where Y is a concentration equivalent to that of sucrose (PSE %), and X is the sweetener component concentration (g/100 ml):
Equations for calculating sweetness intensity in the cola drink (pH 2.8, 20° C.) are as follows, wherein Y denotes the concentration equivalent to that of sucrose (g/100 ml) and X denotes the concentration of the sweetener (g/100 ml), respectively.
With regard to Acesulfame K, the magnification of sweetness intensity was determined according to the following equation for calculating sweetness intensity.
[Y: concentration equivalent to that of sucrose (g/100ml); X: concentration of Acesulfame K (g/100 ml)]
By using the equation for calculating sweetness intensity in the cola drink (refer to Example 4) and the equation for calculating sweetness intensity of Aspartame (refer to the monthly Journal “Food Chemical” August, page 35, 1997), the necessary amounts of those were calculated. In case of Aspartame, the values at 20° C., pH2.8 were used.
The equation for calculating sweetness intensity of derivative 1 in the aqueous solution is as follows.
Where, the calculation of the sweetness was made by using the equation for calculating sweetness intensity of derivative 4 Y=58775X^1.04. When Y=6.3%, X=0.00015 g/100 ml, When Y=5.1%, X=0.00012 g/100 ml.
Examples for equations for calculating sweetness intensity in the cola drink (pH2.8, 20° C.) are as follows, and another equations can be prepared in the same manner, wherein Y denotes the concentration equivalent to that of sucrose (g/100 ml) and X denotes the concentration of the sweetener (g/100 ml), respectively.

Assay [3] can be described thus: Taste characteristics in a cola drink (9 items, similarity index vs cola drink containing 10% sucrose). The following applies: non-carbonated cola drink, PSE 10%, vs cola drink with 10% sucrose; smaller = closer to sucrose; 8 panelists. The method, then: The following experiments were performed in the same way as that of Example 2. Instead of aqueous solution, the cola drink of each of derivatives 1 to 9 having a sweetness level equivalent to that of PSE 10% was prepared, and compared with the cola drink containing 10% sucrose. The evaluation method and so on were same as that of Example 2.
When carbon dioxide is blown in the cola drink, the carbonated cola drink is prepared, however, the taste of the cola drink can be compared more easily in that without carbon dioxide. Thus the sensory evaluation of non-carbonated cola drink was performed.
The composition of the cola drink employed was same as that of Example 1.
The similarity indexes were calculated as those of aqueous solutions. The smaller the similarity index becomes, the better the taste balances, and the closer the taste is to the taste characteristics (quality) of sucrose. The total taste becomes preferable. The similarity indexes of each derivatives are shown as follows. […]
The following experiments were conducted in the same way as that of Example 15. Instead of aqueous solution, the cola drink of each of derivatives 1 to 9 having a sweetness level equivalent to that of PSE 10% was prepared, and compared with the cola drink containing 10% sucrose. All of the evaluation method and so on were same as those of Example 15.
When carbon dioxide is blown in the cola drink, the carbonated cola drink is prepared, however, the taste of the cola drink can be compared more easily in that without carbon dioxide. Thus the non-carbonated cola drink was organoleptically evaluated.
The composition of the cola drink employed was same as that of Example 14.
The similarity indexes were calculated as those of aqueous solutions. The smaller the similarity index becomes, the better the taste balances, and the closer the taste is to the taste characteristics (quality)of sucrose. The total taste becomes preferable. The similarity indexes of each of the derivatives are shown as follows. […]

The nature of assay [4]: Magnification of sweetness intensity in the cola drink (sensory evaluation against sucrose cola drinks). The following applies: for magnification of sweetness intensity in the cola drink: vs cola drink containing 10% sucrose. An excerpt: And the magnification of sweetness intensity in the cola drink can be also determined by the same method compared to the control solution of cola drink containing 10% sucrose.
The composition of cola drink is as follows.
As for the concentration of the references, the sucrose concentrations of previous (a) to (e) were used. In consequence, the magnification of sweetness intensity in the cola drink of derivative 1 was 22600 times, and that of derivative 2 was 4900 times.
And the magnification of sweetness intensity in the cola drink can be also determined by the same method compared to the reference solution of cola drink containing 10% sucrose.
The components of cola drink is as follows.
As for the concentration of the references, the sucrose concentrations of previous (a) to (e) were used. As the results, the magnification of sweetness intensity in the cola drink of derivative 1 was 22600 times, and that of derivative 2 was 4900 times.
And the magnification of sweetness in the cola drink can be also determined by the same method compared to the control solution of cola drink containing 10% sucrose.
As for the concentration of the references, the sucrose concentrations of previous (a) to (e) were used. As a result, the magnification of sweetness intensity in the cola drink of derivative 1 was 22600 times, and that of derivative 2 was 4900 times.

The nature of assay [5]: Equivalent concentration of bitter taste (Example 30), calcium lactate. The following applies: derivative 4 2.2 ppm; calcium lactate 1500 ppm; no addition 0.054. The method, then:
as §1, §2

The nature of assay [6]: Equivalent concentration of bitter taste, sensory evaluation, arginine solution (Example 28). The following applies: 2% arginine solution; addition 4.4 ppm; as concentration of anhydrous caffeine; 10 panelists; no addition 0.131. Here is the method:
as §1

For `COC(=O)[C@H](Cc1ccccc1)NC(=O)[C@H](CC(=O)O)NCCC(C)(C)c1ccc(O)c(C)c1` [Derivative 4, N-[N-[3-(3-methyl-4-hydroxyphenyl)-3-methylbutyl]-L-α-aspartyl]-L-phenylalanine 1-methyl ester], in assay [1], the “Equivalent concentration of bitter taste (Amount of anhydrous caffeine g/100 g), Tiamine hydrochloride” value came to 0.093 g/100 g. Further, the “X when Y=5.1%” value in assay [2] (from the equation of derivative 4) was 0.00012 g/100 ml. The “X when Y=6.3%” value in assay [2] is on record as 0.00015 g/100 ml. In assay [3], this molecule came in with a Similarity index of 1.04. Further, the “Amount equivalent to PSE 10%” value in assay [4] amounted to 3.4 mg/1000 ml. For the same molecule, the “Equivalent concentration of bitter taste (Amount of anhydrous caffeine g/100 g), Calcium lactate” value in assay [5] is recorded as 0.025 g/100 g.

For the molecule `COC(=O)[C@H](Cc1ccccc1)NC(=O)[C@H](CC(=O)O)NCCCc1ccc(O)c(C)c1` [Derivative 8, N-[N-[3-(3-methyl-4-hydroxyphenyl)propyl]-L-α-aspartyl]-L-phenylalanine 1-methyl ester], the “X when Y=8.9%” value in assay [2] (from the equation of derivative 8) was 0.00055 g/100 ml. In assay [2], the “X when Y=6.3%” value is listed as 0.00036 g/100 ml. Further, the Similarity index in assay [3] came out at 1.00. In addition, the “Amount equivalent to PSE 10%” value in assay [4] came out at 6.3 mg/1000 ml.

As for `COC(=O)[C@H](Cc1ccccc1)NC(=O)[C@H](CC(=O)O)NCCC(C)(C)c1ccc(O)cc1` [Derivative 6, N-[N-[3-(4-hydroxyphenyl)-3-methylbutyl]-L-α-aspartyl]-L-phenylalanine 1-methyl ester], in assay [2] (from the equation of derivative 6), the “X when Y=9.6%” value is 0.000685 g/100 ml. The same molecule yielded a Similarity index in assay [3] of 0.81. Further, the “Amount equivalent to PSE 10%” value in assay [4] amounted to 7.1 mg/1000 ml.

As to `COC(=O)[C@H](Cc1ccccc1)NC(=O)[C@H](CC(=O)O)NCCCc1ccc(OC)cc1` [Derivative 2, N-[N-[3-(4-methoxyphenyl)propyl]-L-α-aspartyl]-L-phenylalanine 1-methyl ester], the “magnification of sweetness intensity at PSE 4%” value in assay [2] (calculated, sweetener for tabletop use) is listed as 6000 times. Besides, the “concentration of the derivative of PSE 0.5%” value in assay [2] is 0.0000597 g/dL. The molecule also showed a Similarity index in assay [3] of 0.80. In addition, in assay [4], the “Amount equivalent to PSE 10%” value was 20.4 mg/1000 ml and the “magnification of sweetness intensity in the cola drink” value was found to be 4900 times.

With `COC(=O)[C@H](Cc1ccccc1)NC(=O)[C@H](CC(=O)O)NCCCc1ccc(OC)c(O)c1` [Derivative 1, N-[N-[3-(3-hydroxy-4-methoxyphenyl)propyl] -L-α-aspartyl]-L-phenylalanine 1-methyl ester], the “Equivalent concentration of bitter taste” value in assay [6] came to 0.060 g/100 g. Besides, the “magnification of the sweetness intensity at PSE 5%” value in assay [2] (calculated, block ice of Example 12) is listed as 25600 times. In assay [2] (cola drink, pH 2.8, 20° C.), the “X, concentration of the sweetener when Y=1” value is listed as 0.000074 g/100 ml; the “X, concentration of the sweetener when Y=2” value is given as 0.00013 g/100 ml; the “X, concentration of the sweetener when Y=5” value was 0.00026 g/100 ml; the “X, concentration of the sweetener when Y=8” value was 0.00037 g/100 ml. Further, in assay [2] (cola drink, pH 2.8, 20° C.), the “X, concentration of the sweetener when Y=9.5” value was 0.000425 g/100 ml. Further, the “concentration of the derivative of PSE 0.5%” value in assay [2] was 0.0000434 g/dL. The molecule also came in with a Similarity index in assay [3] of 0.78. In addition, in assay [4], the “Amount equivalent to PSE 10%” value came to 4.5 mg/1000 ml and the “magnification of sweetness intensity in the cola drink” value is listed as 22600 times.

(Values after patent publication US20030059511A1, “Sweetener compositions and uses thereof” (AJINOMOTO CO., INC., priority 1999, published 2003).)
